ChEMBL document CHEMBL5500371, “Arginine and tryptophan-rich dendritic antimicrobial peptides that disrupt membranes for bacterial infection in vivo” (Eur J Med Chem, 2024)
≈ marks a conversion by molar mass, not a printed value. Calls of active or inactive are those of the source. No cut-off for these calls is given here. Where a SMILES comes first, the peptide text is derived from it. Side-chain parts run from the residue outwards.

Columns and labels:
Staphylococcus aureus [1] = experiment: Antibacterial activity against Staphylococcus aureus ATCC 25923 assessed as inhibition of bacterial growth incubated for 20 hrs by broth microdilution method; type: functional
Bacillus subtilis = experiment: Antibacterial activity against Bacillus subtilis ATCC 23857 assessed as inhibition of bacterial growth incubated for 20 hrs by broth microdilution method; type: functional
Acinetobacter baumannii = experiment: Antibacterial activity against Acinetobacter baumannii ATCC 19606 assessed as inhibition of bacterial growth incubated for 20 hrs by broth microdilution method; type: functional
Klebsiella pneumoniae = experiment: Antibacterial activity against Klebsiella pneumoniae ATCC 700603 assessed as inhibition of bacterial growth incubated for 20 hrs by broth microdilution method; type: functional
Escherichia coli [2] = experiment: Antibacterial activity against Escherichia coli ATCC 25922 assessed as inhibition of bacterial growth incubated for 20 hrs by broth microdilution method; type: functional
Pseudomonas aeruginosa = experiment: Antibacterial activity against Pseudomonas aeruginosa ATCC 27853 assessed as inhibition of bacterial growth incubated for 20 hrs by broth microdilution method; type: functional
Erythrocyte = experiment: Hemolytic activity in mouse erythrocytes assessed as 10% hemolysis incubated for 1 hr by absorbance based analysis; type: toxicity, cell-based
[3] = Cytotoxicity against HEK293T cells assessed as cell death measured after 1 hr by resazurin dye based analysis; type: toxicity, HEK-293T; conditions: human, HEK293T cells
Escherichia coli [4] = experiment: Antibacterial activity against Escherichia coli ATCC 25922 assessed as inhibition of bacterial growth incubated for 20 hrs in presence of NaCl by broth microdilution method (reference value: 8 microM); type: functional
Escherichia coli [5] = experiment: Antibacterial activity against Escherichia coli ATCC 25922 assessed as inhibition of bacterial growth incubated for 20 hrs in presence of KCl by broth microdilution method (reference value: 8 microM); type: functional
Escherichia coli [6] = experiment: Antibacterial activity against Escherichia coli ATCC 25922 assessed as inhibition of bacterial growth incubated for 20 hrs in presence of MgCl2 by broth microdilution method (reference value: 8 microM); type: functional
Escherichia coli [7] = experiment: Antibacterial activity against Escherichia coli ATCC 25922 assessed as inhibition of bacterial growth incubated for 20 hrs in presence of FeCl3 by broth microdilution method (reference value: 8 microM); type: functional
Escherichia coli [8] = experiment: Antibacterial activity against Escherichia coli ATCC 25922 assessed as inhibition of bacterial growth incubated for 20 hrs in presence of ZnCl2 by broth microdilution method (reference value: 8 microM); type: functional
Staphylococcus aureus [9] = experiment: Antibacterial activity against Staphylococcus aureus ATCC 25923 assessed as inhibition of bacterial growth incubated for 20 hrs in presence of NaCl by broth microdilution method (reference value: 8 microM); type: functional
Staphylococcus aureus [10] = experiment: Antibacterial activity against Staphylococcus aureus ATCC 25923 assessed as inhibition of bacterial growth incubated for 20 hrs in presence of KCl by broth microdilution method (reference value: 8 microM); type: functional
Staphylococcus aureus [11] = experiment: Antibacterial activity against Staphylococcus aureus ATCC 25923 assessed as inhibition of bacterial growth incubated for 20 hrs in presence of MgCl2 by broth microdilution method (reference value: 8 microM); type: functional
Staphylococcus aureus [12] = experiment: Antibacterial activity against Staphylococcus aureus ATCC 25923 assessed as inhibition of bacterial growth incubated for 20 hrs in presence of FeCl3 by broth microdilution method (reference value: 8 microM); type: functional
Staphylococcus aureus [13] = experiment: Antibacterial activity against Staphylococcus aureus ATCC 25923 assessed as inhibition of bacterial growth incubated for 20 hrs in presence of ZnCl2 by broth microdilution method (reference value: 8 microM); type: functional
Staphylococcus aureus [14] = experiment: Antibacterial activity against Staphylococcus aureus ATCC 25923 assessed as inhibition of bacterial growth by measuring fold increase in MIC incubated for 20 hrs in presence of NaCl by broth microdilution method relative to control; type: functional
Staphylococcus aureus [15] = experiment: Antibacterial activity against Staphylococcus aureus ATCC 25923 assessed as inhibition of bacterial growth by measuring fold increase in MIC incubated for 20 hrs in presence of KCl by broth microdilution method relative to control; type: functional
Staphylococcus aureus [16] = experiment: Antibacterial activity against Staphylococcus aureus ATCC 25923 assessed as inhibition of bacterial growth by measuring fold increase in MIC incubated for 20 hrs in presence of MgCl2 by broth microdilution method relative to control; type: functional
Staphylococcus aureus [17] = experiment: Antibacterial activity against Staphylococcus aureus ATCC 25923 assessed as inhibition of bacterial growth by measuring fold increase in MIC incubated for 20 hrs in presence of FeCl3 by broth microdilution method relative to control; type: functional
Staphylococcus aureus [18] = experiment: Antibacterial activity against Staphylococcus aureus ATCC 25923 assessed as inhibition of bacterial growth by measuring fold increase in MIC incubated for 20 hrs in presence of ZnCl2 by broth microdilution method relative to control; type: functional
Escherichia coli [19] = experiment: Antibacterial activity against Escherichia coli ATCC 25922 assessed as inhibition of bacterial growth preincubated with 10% mouse serum for 1 hr and measured after 20 hrs by broth microdilution method; type: functional; conditions: time 21 hrs
Escherichia coli [20] = experiment: Antibacterial activity against Escherichia coli ATCC 25922 assessed as inhibition of bacterial growth preincubated with 10% mouse serum for 6 hrs and measured after 20 hrs by broth microdilution method; type: functional; conditions: time 26 hrs
[21] = Therapeutic index, ratio of MHC10 for hemolytic activity in mouse erythrocytes preincubated with 10% mouse serum for 1 hr to MIC for Escherichia coli ATCC 25922 preincubated with 10% mouse serum for 1 hr; type: toxicity, cell-based; conditions: mouse erythrocytes, read-out: TI
[22] = Therapeutic index, ratio of MHC10 for hemolytic activity in mouse erythrocytes preincubated with 10% mouse serum for 6 hrs to MIC for Escherichia coli ATCC 25922 preincubated with 10% mouse serum for 6 hrs; type: toxicity, cell-based; conditions: mouse erythrocytes, read-out: TI
Staphylococcus aureus [23] = experiment: Antibacterial activity against Staphylococcus aureus ATCC 25923 assessed as inhibition of bacterial growth preincubated with 10% mouse serum for 1 hr and measured after 20 hrs by broth microdilution method; type: functional; conditions: time 21 hrs
Staphylococcus aureus [24] = experiment: Antibacterial activity against Staphylococcus aureus ATCC 25923 assessed as inhibition of bacterial growth preincubated with 10% mouse serum for 6 hrs and measured after 20 hrs by broth microdilution method; type: functional; conditions: time 21 hrs
[25] = Therapeutic index, ratio of MHC10 for hemolytic activity in mouse erythrocytes preincubated with 10% mouse serum for 1 hr to MIC for Staphylococcus aureus ATCC 25923 preincubated with 10% mouse serum for 1 hr; type: toxicity, cell-based; conditions: mouse erythrocytes, read-out: TI
[26] = Therapeutic index, ratio of MHC10 for hemolytic activity in mouse erythrocytes preincubated with 10% mouse serum for 6 hrs to MIC for Staphylococcus aureus ATCC 25923 preincubated with 10% mouse serum for 6 hrs; type: toxicity, cell-based; conditions: mouse erythrocytes, read-out: TI
[27] = Hemolytic activity in mouse erythrocytes at 256 uM preincubated for 1 to 6 hr with 10% mouse serum and measured after 1 hr by absorbance based analysis; type: toxicity, cell-based, Erythrocyte; conditions: time 1-7 hrs, read-out: Activity
[28] = Stability in mouse serum assessed as half life at 10 mM measured upto 24 hrs by RP-HPLC analysis; type: ADME, cell-free
Escherichia coli [29] = experiment: Resistant development in Escherichia coli assessed as increase in MIC at sub-MIC measured after 20 passages; type: functional, organism-based
Escherichia coli [30] = experiment: Drug resistance, ratio of MIC for Escherichia coli after 14 to 19 passages to MIC for Escherichia coli after initial exposure; type: functional, organism-based
Staphylococcus aureus [31] = experiment: Drug resistance, ratio of MIC for Staphylococcus aureus after 14 to 19 passages to MIC for Staphylococcus aureus after initial exposure; type: functional, organism-based
Escherichia coli [32] = experiment: Antibacterial activity against Escherichia coli ATCC 25922 assessed as inhibition of bacterial growth incubated for 20 hrs in presence of NaCl by broth microdilution method (reference value: 16 microM); type: functional
Escherichia coli [33] = experiment: Antibacterial activity against Escherichia coli ATCC 25922 assessed as inhibition of bacterial growth incubated for 20 hrs in presence of KCl by broth microdilution method (reference value: 16 microM); type: functional
Escherichia coli [34] = experiment: Antibacterial activity against Escherichia coli ATCC 25922 assessed as inhibition of bacterial growth incubated for 20 hrs in presence of MgCl2 by broth microdilution method (reference value: 16 microM); type: functional
Escherichia coli [35] = experiment: Antibacterial activity against Escherichia coli ATCC 25922 assessed as inhibition of bacterial growth incubated for 20 hrs in presence of FeCl3 by broth microdilution method (reference value: 16 microM); type: functional
Escherichia coli [36] = experiment: Antibacterial activity against Escherichia coli ATCC 25922 assessed as inhibition of bacterial growth incubated for 20 hrs in presence of ZnCl2 by broth microdilution method (reference value: 16 microM); type: functional

Compound: N=C(N)NCCC[C@H](NC(=O)[C@H](CCCNC(=N)N)NC(=O)[C@H](CCCNC(=N)N)NC(=O)[C@H](CCCNC(=N)N)NC(=O)[C@H](CCCCNC(=O)[C@H](Cc1c[nH]c2ccccc12)NC(=O)[C@@H](N)Cc1c[nH]c2ccccc12)NC(=O)[C@H](Cc1c[nH]c2ccccc12)NC(=O)[C@@H](N)Cc1c[nH]c2ccccc12)C(N)=O (H-WWK([Trp-Trp])RRRR-NH2)
- MIC (Staphylococcus aureus [1]): 8 µM (≈ 12.1 µg/mL)
- MIC (Bacillus subtilis): 8 µM (≈ 12.1 µg/mL)
- MIC (Acinetobacter baumannii): 64 µM (≈ 96.9 µg/mL)
- MIC (Klebsiella pneumoniae): 128 µM (≈ 194 µg/mL)
- MIC (Escherichia coli [2]): 8 µM (≈ 12.1 µg/mL)
- MIC (Pseudomonas aeruginosa): 32 µM (≈ 48.5 µg/mL)
- MHC10 (Erythrocyte): > 256 µM
- CC50 at 1 h [3]: > 128 µM
- MIC (Escherichia coli [4]): 16 µM
- MIC (Escherichia coli [5]): 8 µM
- MIC (Escherichia coli [6]): 8 µM
- MIC (Escherichia coli [7]): 8 µM
- MIC (Escherichia coli [8]): 8 µM
- MIC (Staphylococcus aureus [9]): 8 µM
- MIC (Staphylococcus aureus [10]): 8 µM
- MIC (Staphylococcus aureus [11]): 8 µM
- MIC (Staphylococcus aureus [12]): 8 µM
- MIC (Staphylococcus aureus [13]): 8 µM
- fold change (FC) (Staphylococcus aureus [14]): <=2
- fold change (FC) (Staphylococcus aureus [15]): <=2
- fold change (FC) (Staphylococcus aureus [16]): <=2
- fold change (FC) (Staphylococcus aureus [17]): <=2
- fold change (FC) (Staphylococcus aureus [18]): <=2
- MIC (Escherichia coli [19]): 2 µM (≈ 3.03 µg/mL)
- MIC (Escherichia coli [20]): 16 µM (≈ 24.2 µg/mL)
- selectivity ratio [21]: 0.5
- selectivity ratio [22]: 0.06
- MIC (Staphylococcus aureus [23]): 2 µM (≈ 3.03 µg/mL)
- MIC (Staphylococcus aureus [24]): 8 µM (≈ 12.1 µg/mL)
- selectivity ratio [25]: 0.5
- selectivity ratio [26]: 0.13
- hemolysis at 1 h, 256 µM [27]: < 10%
- half-life at 10000 µM [28]: 32.4 min

Compound: CO[C@H]1/C=C/O[C@@]2(C)Oc3c(C)c(O)c4c(O)c(c(/C=N/N5CCN(C)CC5)c(O)c4c3C2=O)NC(=O)/C(C)=C\C=C\[C@H](C)[C@H](O)[C@@H](C)[C@@H](O)[C@@H](C)[C@H](OC(C)=O)[C@@H]1C [RIFAMPIN]
- MIC (Staphylococcus aureus [1]): < 1 µM
- MIC (Bacillus subtilis): < 1 µM
- MIC (Acinetobacter baumannii): < 1 µM
- MIC (Klebsiella pneumoniae): 32 µM (≈ 26.3 µg/mL)
- MIC (Escherichia coli [2]): 4 µM (≈ 3.29 µg/mL)
- MIC (Pseudomonas aeruginosa): 32 µM (≈ 26.3 µg/mL)
- Activity (Escherichia coli [29]): Active

Compound: GENTAMICIN
- Activity (Escherichia coli [29]): Active
- Ratio (Escherichia coli [30]): 32
- Ratio (Staphylococcus aureus [31]): 32

Compound: H-WWWWKRRRR-NH2
- MIC (Staphylococcus aureus [1]): 8 µM
- MIC (Bacillus subtilis): 8 µM
- MIC (Acinetobacter baumannii): 32 µM
- MIC (Klebsiella pneumoniae): 64 µM
- MIC (Escherichia coli [2]): 32 µM
- MIC (Pseudomonas aeruginosa): 8 µM
- MHC10 (Erythrocyte): > 256 µM
- CC50 at 1 h [3]: > 128 µM
- MIC (Escherichia coli [32]): 32 µM
- MIC (Escherichia coli [33]): 8 µM
- MIC (Escherichia coli [34]): 8 µM
- MIC (Escherichia coli [35]): 16 µM
- MIC (Escherichia coli [36]): 16 µM
- MIC (Staphylococcus aureus [9]): 8 µM
- MIC (Staphylococcus aureus [10]): 8 µM
- MIC (Staphylococcus aureus [11]): 8 µM
- MIC (Staphylococcus aureus [12]): 8 µM
- MIC (Staphylococcus aureus [13]): 8 µM
- fold change (FC) (Staphylococcus aureus [14]): <=2
- fold change (FC) (Staphylococcus aureus [15]): <=2
- fold change (FC) (Staphylococcus aureus [16]): <=2
- fold change (FC) (Staphylococcus aureus [17]): <=2
- fold change (FC) (Staphylococcus aureus [18]): <=2
- MIC (Escherichia coli [19]): 2 µM
- MIC (Escherichia coli [20]): 8 µM
- selectivity ratio [21]: 0.5
- selectivity ratio [22]: 0.13
- MIC (Staphylococcus aureus [23]): 2 µM
- MIC (Staphylococcus aureus [24]): 8 µM
- selectivity ratio [25]: 0.5
- selectivity ratio [26]: 0.13
- hemolysis at 1 h, 256 µM [27]: < 10%
- half-life at 10000 µM [28]: 85.3 min
